# Results: US20060205787A1, “Methods and compositions using 4-amino-2-(3-methyl-2,6-dioxopiperidin-3-yl)-isoindole-1,3-dione” (priority 2005, published 2006)
row,Structure (SMILES),melting point [°C]
1,C[C@]1(N2C(=O)c3cccc(NC(=O)CN)c3C2=O)CCC(=O)NC1=O.Cl,> 260
2,"C[C@]1(N2C(=O)c3cccc(N)c3C2=O)CCC(=O)NC1=O [Example 5.1.11, (3S)-4-Amino-2-(3-Methyl-2,6-Dioxopiperidin-3-yl)-Isoindole-1,3-Dione]",235 to 237
3,CC1(N2C(=O)c3cccc(NC(=O)CN)c3C2=O)CCC(=O)NC1=O.Cl (stereo not drawn),111 to 113
